Assay [1] concerns D93 binding to human denatured-collagen IV. In words: Competition ELISA: synthetic peptides blocking D93 binding to heat denatured collagen IV. On the procedure: (§1) The ELISA was conducted as follows: wells of a 96-well microtiter plate (Immulon, 4 HBX flat-bottomed, Thermo Electron Corporation, Waltham, Mass.) were coated with 100 μL/well of dn-collagen IV at 10 μg/mL in Phosphate Buffered Saline (PBS) overnight at 4° C. The plate was washed 3 times (3×) with PBS containing 0.05% (v/v) Tween-20 (PBST) using an automated plate washer.
(§2) The plate was blocked by adding 300 μL/well of 1% BSA (w/v) in PBS for 1 hour at 25° C. followed by washing 3× in PBST as above.
(§3) Solutions of D93 or HUI77 were prepared with various concentrations of peptide or antibody inhibitor and incubate for 15 minutes. D93 or HUI77 was prepared at 200 ng/mL in 1% BSA/PBS.
(§4) For antibody blocking studies using synthetic peptides: peptide inhibitor stock solutions were prepared at 2 mM, 0.2 mM, 0.02 mM, and 0.002 mM in 1% BSA/PBS. 500 μL of a 2 mM peptide solution in 1% BSA/PBS was prepared and diluted 1:10 in 500 μL a total of three times to make peptide inhibitor concentrations.
(§5) 200 μL of D93 or HUI77 at 200 ng/mL solution was combined with 200 μL of peptide or antibody inhibitor solution and incubated for 15 minutes at room temperature.
(§6) D93 or HUI77 with various concentrations of inhibitors (2 mM, 0.2 mM, 0.02 mM, and 0.002 mM) were added to microplate wells and incubated for 1 hour at 25° C. The plate was washed 3× in PBST as above.
(§7) To each microtiter plate well, 100 μL of diluted anti-human IgG or anti-mouse IgM conjugated to horseradish peroxidase (HRP) in PBST was added and incubated for one hour at 25° C.: (a) for D93: Goat anti-human IgG-HRP (Jackson ImmunoResearch, Catalog No. 109-035-088) was used at 1:20,000 and (b) for HUI77: Goat anti-mouse IgM-HRP was used at 1:4,000. Plates were washed 3× in PBST as above.
(§8) Tetramethylbenzidine (TMB) substrate (100 μL; Pierce Chemicals)) was added to wells and the plates were allowed to develop at room temperature for 15 minutes in the dark. Substrate development was stopped by adding 50 μL/well of 2N H2SO4. The microtiter […] plates were read at 450 nm within five minutes of adding the H2SO4. Reactivity was measured with a microplate reader (Molecular Devices, Sunnyvale, Calif.) at a wavelength of 450 nm and analyzed using SOFTMax® PRO4.0 (Molecular Devices). All samples were tested in triplicate.
(§9) Individual peptides with amino acid substitutions and deletions were also synthesized based on the primary and secondary peptide arrays. […] The inhibitory activity of the individual peptides was tested by ELISA as previously described to measure binding of D93 or HUI77 to denatured collagen where peptides and antibodies were prepared at a 2× concentration and pre-incubated for 15 minutes prior to adding to microtiter plates coated with dn-collagen.
(§10) 96-well plates were coated with 100 μL/well of denatured (dn) collagen IV at 10 μg/mL in phosphate buffered saline (PBS) overnight at 4° C. followed by washing the plates in an automated plate washer 3 times in PBS containing 0.05% (v/v) Tween-20 (PBST). Non-specific binding was prevented by blocking the wells by adding 300 μL/well of 1% bovine serum albumin (BSA) (w/v) in PBS for 1 hour (hr) at 25° C. The plates were washed as above.
(§11) Solutions of D93 and HUI77 antibodies were prepared with various concentrations of inhibitor and incubated for 15 minutes. Briefly, 20 mLs of D93 or HUI77 were prepared at 200 ng/mL in 1% BSA/PBS. Solutions of peptide inhibitors (2 mM, 0.2 mM, […]) were prepared in 1% BSA/PBS. Equal volumes of antibodies and peptide inhibitors were combined: 200 μL of D93 or HUI77 (200 ng/mL solution) with 200 μL of each peptide solution.
(§12) 100 μL/well of D93 or HUI77 at 100 ng/mL with various concentrations of inhibitors were added to the wells in triplicate and incubated for 1 hour at 25° C. The plates were washed as described above.
(§13) 100 μL/well of secondary horseradish peroxidase (HRP)-conjugated antibody in PBST was added to each well and incubated for 1 hour (hr) at 25° C. […]

Assay [2] concerns HUI77 binding to denatured collagen IV. In words: Competition ELISA: synthetic peptides blocking HUI77 binding to heat denatured collagen IV. Set-up: species or system human. On the procedure:
as §1, §2, §3, §4, §5, §6, §7, §8, §9, §10, §11, §12, §13

[3] abbreviates: peptide inhibitor concentration 1 μM, average of two studies, vs 1% BSA/PBS alone.
The mark [4] stands for this setting: peptide inhibitor concentration 10 μM, average of two studies, vs 1% BSA/PBS alone.
Setting [5] is: peptide inhibitor concentration 100 μM, average of two studies, vs 1% BSA/PBS alone.
[6] abbreviates: peptide inhibitor concentration 1000 μM, average of two studies, vs 1% BSA/PBS alone.
[7] abbreviates: peptide inhibitor concentration 10 μM, average of two studies.
[8] abbreviates: peptide inhibitor concentration 100 μM, average of two studies.
[9] abbreviates: peptide inhibitor concentration 1000 μM, average of two studies.
Setting [10] is: peptide inhibitor concentration 100 μM, asterisk (*): data from a separate assay.

Marks after values point to notes of the source that are not given here. Square brackets hold non-standard residues; d marks the D form. Ends that are not written are not given here. Hyp = O=C(O)[C@@H]1C[C@@H](O)CN1

For the substance “GPPGPPG (GPXGPXG; MOD_RES (3) Hydroxyproline; MOD_RES (6) Hydroxyproline) [SEQ ID NO: 32]”, the “% INHIBITION OF BINDING OF D93 TO HUMAN DENATURED-COLLAGEN IV” value amounted to 8% in assay [1] (peptide inhibitor concentration 1 μM, average of two studies, vs 1% BSA/PBS alone, listed as 15 (32), 1 µM); 17% in assay [1] (peptide inhibitor concentration 10 μM, average of two studies, vs 1% BSA/PBS alone, listed as 15 (32), 10 µM); 64% in assay [1] (peptide inhibitor concentration 100 μM, average of two studies, vs 1% BSA/PBS alone, listed as 15 (32), 100 µM); 92.5% in assay [1] (peptide inhibitor concentration 1000 μM, average of two studies, vs 1% BSA/PBS alone, listed as 15 (32), 1000 µM). The “% INHIBITION OF BINDING OF HUI77 TO DENATURED COLLAGEN IV” value worked out at 6% in assay [2] (peptide inhibitor concentration 10 μM, average of two studies, listed as 15 (32), 10 µM); 7.5% in assay [2] (peptide inhibitor concentration 100 μM, average of two studies, listed as 15 (32), 100 µM); 77% in assay [2] (peptide inhibitor concentration 1000 μM, average of two studies, listed as 15 (32), 1000 µM).
For “LPGPPGPPGP (LPGP[Hyp]GP[Hyp]GP) [SEQ ID NO: 20]”, the “% INHIBITION OF BINDING OF D93 TO HUMAN DENATURED-COLLAGEN IV” value in assay [1] (setting [3]) is 12%; in assay [1] (setting [4]), 41.5%; in assay [1] (setting [5]) it was 89%; in assay [1] (setting [6]), 92.5%. The “% INHIBITION OF BINDING OF HUI77 TO DENATURED COLLAGEN IV” value in assay [2] (setting [7]) worked out at 10%; in assay [2] (setting [8]) it was 14%; in assay [2] (setting [9]) it was 73%.
As for LPGLPG (L[Hyp]GL[Hyp]G) [SEQ ID NO: 25], the “% INHIBITION OF BINDING OF D93 TO HUMAN DENATURED-COLLAGEN IV” value in assay [1] (setting [3]) is 8%; in assay [1] (setting [4]), 6.5%; in assay [1] (setting [5]), 6.5%; in assay [1] (setting [6]), 46.5%. For the same substance, the “% INHIBITION OF BINDING OF HUI77 TO DENATURED COLLAGEN IV” value in assay [2] (setting [7]) is recorded as 6%; in assay [2] (setting [8]), 9.5%; in assay [2] (setting [9]) it was 17.5%.
In the case of “L-Hyp-G-F-Hyp-G (L[Hyp]GF[Hyp]G) [SEQ ID NO: 23]”, the “% INHIBITION OF BINDING OF D93 TO HUMAN DENATURED-COLLAGEN IV” value in assay [1] (setting [3]) was 10.5%; in assay [1] (setting [4]) it was 6%; in assay [1] (setting [5]) it was 8%; in assay [1] (setting [6]), 32%. Also, the “% INHIBITION OF BINDING OF HUI77 TO DENATURED COLLAGEN IV” value in assay [2] (setting [7]) is reported as 7%; in assay [2] (setting [8]), 14.5%; in assay [2] (setting [9]), 75%.
Take “PGAKGLPGP ([Hyp]GAKGLPGP) [SEQ ID NO: 17]”: the “% INHIBITION OF BINDING OF D93 TO HUMAN DENATURED-COLLAGEN IV” value is listed as 11% in assay [1] (setting [3]), 6% in assay [1] (setting [4]), 4% in assay [1] (setting [5]) and 11.5% in assay [1] (setting [6]). Besides, the “% INHIBITION OF BINDING OF HUI77 TO DENATURED COLLAGEN IV” value in assay [2] (setting [7]) was 8%; in assay [2] (setting [8]), 10.5%; in assay [2] (setting [9]), 10%.
With LPGPPGPPG [SEQ ID NO: 22], the “% INHIBITION OF BINDING OF D93 TO HUMAN DENATURED-COLLAGEN IV” value is 6% in assay [1] (peptide inhibitor concentration 1 μM, average of two studies, vs 1% BSA/PBS alone, listed as 18 (22), 1 µM); 5% in assay [1] (peptide inhibitor concentration 10 μM, average of two studies, vs 1% BSA/PBS alone, listed as 18 (22), 10 µM); 3% in assay [1] (peptide inhibitor concentration 100 μM, average of two studies, vs 1% BSA/PBS alone, listed as 18 (22), 100 µM); 17.5% in assay [1] (peptide inhibitor concentration 1000 μM, average of two studies, vs 1% BSA/PBS alone, listed as 18 (22), 1000 µM). Moreover, the “% INHIBITION OF BINDING OF HUI77 TO DENATURED COLLAGEN IV” value in assay [2] (peptide inhibitor concentration 100 μM, average of two studies, listed as 18 (22), 100 µM) was determined as 9%; in assay [2] (peptide inhibitor concentration 1000 μM, average of two studies, listed as 18 (22), 1000 µM), 6%.
On to “Hyp-G-A-K-G-L-P-G-P-Hyp-G-P-Hyp-G-P-Y [SEQ ID NO: 2]”, for which the “% INHIBITION OF BINDING OF D93 TO HUMAN DENATURED-COLLAGEN IV” value in assay [1] (setting [3]) is given as 30%; in assay [1] (setting [4]) it was 81%; in assay [1] (setting [5]) it was 93.5%; in assay [1] (setting [6]), 93.5%. For the same substance, the “% INHIBITION OF BINDING OF HUI77 TO DENATURED COLLAGEN IV” value in assay [2] (setting [7]) is recorded as 7.5%; in assay [2] (setting [8]), 18%; in assay [2] (peptide inhibitor concentration 1000 μM, average of two studies, 1000 µM), 86%; in assay [2] (peptide inhibitor concentration 1000 μM, average of two studies, listed as 12 (2), 1000 µM), 86.5%.
As for LPGSPG (L[Hyp]GS[Hyp]G) [SEQ ID NO: 26], the “% INHIBITION OF BINDING OF D93 TO HUMAN DENATURED-COLLAGEN IV” value stood at 9.5% in assay [1] (setting [3]), 3.5% in assay [1] (setting [4]), 2.5% in assay [1] (setting [5]) and 13.5% in assay [1] (setting [6]). The results for the “% INHIBITION OF BINDING OF HUI77 TO DENATURED COLLAGEN IV” value in assay [2] (setting [7]), in assay [2] (setting [8]) and in assay [2] (setting [9]) were 8%, 10.5% and 8.5%, respectively.
As for “G-P-Hyp-G-P-Hyp-G-P-Y (GP[Hyp]GP[Hyp]GPY) [SEQ ID NO: 30]”, the “% INHIBITION OF BINDING OF D93 TO HUMAN DENATURED-COLLAGEN IV” value in assay [1] (setting [3]) is 33%; in assay [1] (peptide inhibitor concentration 10 μM, asterisk (*): data from a separate assay), 79.9* %; in assay [1] (setting [4]), 82.5, %; in assay [1] (setting [10]) it was 90.3%; in assay [1] (setting [5]) it was 94%; in assay [1] (setting [6]), 94%. The “% INHIBITION OF BINDING OF HUI77 TO DENATURED COLLAGEN IV” value was 8.5% in assay [2] (setting [7]); 0% in assay [2] (setting [10]); 12% in assay [2] (setting [8]); 63% in assay [2] (peptide inhibitor concentration 1000 μM, asterisk (*): data from a separate assay); 78% in assay [2] (setting [9]).

The values are drawn from patent publication US20080008707A1, “Denatured collagen peptides and uses thereof” (Cell-Matrix, Inc., priority 2006, published 2008).
